Assay results: patent publication US11672812B2, “Methods and compositions comprising tyrosine kinase inhibitor and triptolide for the treatment of cancer” (City of Hope, priority 2020, dated 2023)

Columns and labels:
[1] = tested on: EGFR-TKI resistant HCC827 lung cancer cells; test: Tumor growth of Tagrisso-resistant HCC827 cells grafted in mice; format: in vivo
Method: (§1) HCC827 or AZD9291-resistant HCC827 cancer or PC9 NSCLC cells (5×10^6) were subcutaneously injected into NOD/SCID mice (2 months old, n=6-10 for each group). After tumor size reaches approximately 100 mm^3, the mice were administered AZD9291 individually or in combination with triptolide using ALZET osmotic pump, which was implanted under the skin of the mice for a specific time period. The tumor volume was monitored twice a week for 4-8 weeks. All protocols involving animals were approved by the Research Animal Care Committee of City of Hope, in compliance with the Public Health Service Policy of the United States.

[2] = tested on: HCC827 cells grafted into mice; test: Tumor growth in HCC827-grafted mice; format: in vivo
Excerpt: To model human EGFR mutated NSCLC, HCC827 cells were grafted into mice.
HCC827 or AZD9291-resistant HCC827 cancer or PC9 NSCLC cells (5×10^6) were subcutaneously injected into NOD/SCID mice (2 months old, n=6-10 for each group). […] The tumor volume was monitored twice a week for 4-8 weeks. All protocols involving animals were approved by the Research Animal Care Committee of City of Hope, in compliance with the Public Health Service Policy of the United States.

PC9 tumor = PC9 tumor growth in grafted mice following Tagrisso resistance development; format: in vivo; settings: for tumor volume relative to its volume prior to the treatment (100%): PC9-grafted mice after 4 weeks Tagrisso, Tagrisso 2x dosage (Group 1), combination (Group 3)
Method: as §1

HCC827 cells = test: Drug resistance assay (time to develop resistance, cell viability by cell counting); format: cell-based, human
HSP72 [3] = test: HSP72 cellular expression; format: cell-based
Excerpt: Triptolide by itself is a potent anti-tumor agent and functions by activating tumor suppressor protein p53 and blocking tumor promotor NF-κB.

HCC827-grafted mice = test: Survival rates of HCC827-grafted mice; format: in vivo; design: dose or concentration left out as unconfirmed; settings: Tagrisso with or without co-administered Velcade (FIG. 3)
PC9 tumors = test: Tumor growth in PC9-grafted mice (Velcade study); format: in vivo; settings: same treatment setting as HCC827 study
Method: (§2) A separate experiment was completed using PC9-grafted mice in the same treatment setting as previously described.
as §1

HSP72 [4] = test: HSP72 protein level in Tagrisso-treated HCC827 cells; format: cell-based, human
Excerpt: The inventors sought to maintain high levels of HSP72 while sustaining cancer treatment with TKIs.

[5] = Adverse effect observed in treated PC9-grafted mice; format: in vivo; settings: Velcade treatment
Excerpt: as §2

[6] = HCC827-grafted mice, compared to untreated control (FIG. 2), Tagrisso at dose corresponding to recommended human dose, low dose of Velcade

Structure (SMILES): C=CC(=O)Nc1cc(Nc2nccc(-c3cn(C)c4ccccc34)n2)c(OC)cc1N(C)CCN(C)C [Tagrisso, Osimertinib]
- tumor growth ([1]; Tagrisso-resistant HCC827 grafted mice (FIG. 5A, 5B)): does not reduce tumor growth
- tumor growth [2, 6]: reduced tumor size and blocked tumor growth
- tumor growth ([2]; non-resistant HCC827 cells (FIG. 5A)): tumor growth is inhibited
- tumor volume relative to its volume prior to the treatment (100%) (PC9 tumor; Triptolide (Group 2)): 190%
- treatment time at which Tagrisso began to lose its inhibitory effect on the PC9 tumor (PC9 tumor; PC9-grafted mice, initial Tagrisso dosage): 4 weeks

Structure (SMILES): C#Cc1cccc(Nc2ncnc3cc(OCCOC)c(OCCOC)cc23)c1 [Tarceva, Erlotinib]
- time for HCC827 cells to develop resistance to Tarceva (HCC827 cells; Tarceva alone): about 30 days

Structure (SMILES): CC(C)[C@]12O[C@H]1[C@@H]1O[C@]13[C@]1(O[C@H]1C[C@H]1C4=C(CC[C@@]13C)C(=O)OC4)[C@@H]2O [Triptolide]
- sensitization of Tagrisso-resistant HCC827 to the EGFR-TKI ([1]; Tagrisso in the absence or presence of Triptolide (FIG. 5B)): sensitizes Tagrisso-resistant HCC827 cells to the EGFR-TKI
- time HCC827 cells maintained sensitivity to Tagrisso (HCC827 cells; Tagrisso in the presence of Triptolide, 70 day duration of the study): > 70 days
- time HCC827 cells maintained sensitivity to Tarceva (resistance not observed) (HCC827 cells; Tarceva when also treated with Triptolide, 70 day duration of the study): > 70 days
- tumor volume relative to its volume prior to the treatment (100%) (PC9 tumor; Triptolide (Group 2)): 60%
- duration of inhibitory effect on PC9 tumor growth (PC9 tumor; after 4 weeks Tagrisso pre-treatment, Tagrisso at 2x dosage (Group 1), Triptolide (Group 2)): at least 4 weeks
- HSP72 cellular expression (HSP72 [3]): may activate HSP72 cellular expression

Structure (SMILES): CC(C)C[C@H](NC(=O)[C@H](Cc1ccccc1)NC(=O)c1cnccn1)B(O)O [Velcade, Bortezomib]
- time HCC827 cells remained sensitive to Tagrisso (HCC827 cells; Tagrisso in the presence of Velcade, same concentration): > 60 days
- survival of the mice (HCC827-grafted mice): did not improve survival of the mice
- PC9 tumor growth (PC9 tumors): little inhibitory effect on PC9 tumor growth
- HSP72 protein levels (HSP72 [4]): effectively maintains high levels of HSP72 protein
- tumor growth [2, 6]: moderately inhibited tumor growth
- adverse effect [5]: skin inflammation after one month
